In patent US20230117470A1, “SUBSTITUTED PYRAZOLE COMPOUNDS AS TOLL RECEPTOR INHIBITORS” (BRISTOL-MYERS SQUIBB COMPANY, priority 2019, published 2023):

Key:
Assay type in all cases: cell-based
human TLR8 = biological target: T1, human TLR8 (Homo sapiens, UniProt Q9NR97); assay: TLR8 inhibition reporter assay (HEK-Blue cells, SEAP reporter, R848 stimulation); conditions: HEK-Blue cells overexpressing human TLR8, SEAP reporter, R848 15.9 μM
T1 construct: host or cells: HEK-Blue cells
T1 sequence (Q9NR97 27-1041): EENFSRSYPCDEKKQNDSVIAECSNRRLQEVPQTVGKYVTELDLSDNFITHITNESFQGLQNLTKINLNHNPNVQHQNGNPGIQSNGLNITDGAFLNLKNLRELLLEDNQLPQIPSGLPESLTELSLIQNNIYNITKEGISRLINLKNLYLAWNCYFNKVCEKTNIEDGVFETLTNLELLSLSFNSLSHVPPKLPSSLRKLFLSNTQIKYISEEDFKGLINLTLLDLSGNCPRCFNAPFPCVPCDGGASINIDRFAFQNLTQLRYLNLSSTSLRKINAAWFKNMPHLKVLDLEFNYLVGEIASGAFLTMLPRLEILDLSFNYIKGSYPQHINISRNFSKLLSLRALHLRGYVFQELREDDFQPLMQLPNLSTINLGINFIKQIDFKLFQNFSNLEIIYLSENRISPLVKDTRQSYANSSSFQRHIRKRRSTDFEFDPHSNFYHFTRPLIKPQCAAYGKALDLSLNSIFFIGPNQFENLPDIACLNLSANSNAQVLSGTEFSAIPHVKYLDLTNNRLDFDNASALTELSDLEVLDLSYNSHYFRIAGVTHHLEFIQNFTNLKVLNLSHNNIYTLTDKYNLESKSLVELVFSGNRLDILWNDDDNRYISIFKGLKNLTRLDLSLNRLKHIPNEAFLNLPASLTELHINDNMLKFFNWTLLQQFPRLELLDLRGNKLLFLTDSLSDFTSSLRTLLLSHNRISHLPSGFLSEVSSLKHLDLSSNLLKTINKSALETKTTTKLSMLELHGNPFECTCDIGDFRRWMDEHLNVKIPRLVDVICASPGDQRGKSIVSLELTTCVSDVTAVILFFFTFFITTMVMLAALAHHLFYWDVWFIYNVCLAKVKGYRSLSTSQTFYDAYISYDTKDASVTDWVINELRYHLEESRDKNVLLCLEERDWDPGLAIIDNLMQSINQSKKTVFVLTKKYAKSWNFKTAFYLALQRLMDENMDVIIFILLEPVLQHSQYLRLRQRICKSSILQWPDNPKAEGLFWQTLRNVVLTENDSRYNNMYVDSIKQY
Summary of the method: (§1)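 Cells were pre-treated 30 min at room temperature with compound (final 0.05 nM–50 μM), then stimulated with gardiquimod 7.5 μM (TLR7), R848 15.9 μM (TLR8) or ODN2006 5 nM (TLR9). SEAP was read after 22 h at 37° C; percent inhibition scaled between agonist+DMSO and known-inhibitor wells.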

human TLR9 = biological target: T2, human TLR9 (Homo sapiens, UniProt Q9NR96); assay: TLR9 inhibition reporter assay (HEK-Blue cells, SEAP reporter, ODN2006 stimulation); conditions: HEK-Blue cells overexpressing human TLR9, SEAP reporter, ODN2006 5 nM
T2 construct: host or cells: HEK-Blue cells
T2 sequence (Q9NR96 26-1032): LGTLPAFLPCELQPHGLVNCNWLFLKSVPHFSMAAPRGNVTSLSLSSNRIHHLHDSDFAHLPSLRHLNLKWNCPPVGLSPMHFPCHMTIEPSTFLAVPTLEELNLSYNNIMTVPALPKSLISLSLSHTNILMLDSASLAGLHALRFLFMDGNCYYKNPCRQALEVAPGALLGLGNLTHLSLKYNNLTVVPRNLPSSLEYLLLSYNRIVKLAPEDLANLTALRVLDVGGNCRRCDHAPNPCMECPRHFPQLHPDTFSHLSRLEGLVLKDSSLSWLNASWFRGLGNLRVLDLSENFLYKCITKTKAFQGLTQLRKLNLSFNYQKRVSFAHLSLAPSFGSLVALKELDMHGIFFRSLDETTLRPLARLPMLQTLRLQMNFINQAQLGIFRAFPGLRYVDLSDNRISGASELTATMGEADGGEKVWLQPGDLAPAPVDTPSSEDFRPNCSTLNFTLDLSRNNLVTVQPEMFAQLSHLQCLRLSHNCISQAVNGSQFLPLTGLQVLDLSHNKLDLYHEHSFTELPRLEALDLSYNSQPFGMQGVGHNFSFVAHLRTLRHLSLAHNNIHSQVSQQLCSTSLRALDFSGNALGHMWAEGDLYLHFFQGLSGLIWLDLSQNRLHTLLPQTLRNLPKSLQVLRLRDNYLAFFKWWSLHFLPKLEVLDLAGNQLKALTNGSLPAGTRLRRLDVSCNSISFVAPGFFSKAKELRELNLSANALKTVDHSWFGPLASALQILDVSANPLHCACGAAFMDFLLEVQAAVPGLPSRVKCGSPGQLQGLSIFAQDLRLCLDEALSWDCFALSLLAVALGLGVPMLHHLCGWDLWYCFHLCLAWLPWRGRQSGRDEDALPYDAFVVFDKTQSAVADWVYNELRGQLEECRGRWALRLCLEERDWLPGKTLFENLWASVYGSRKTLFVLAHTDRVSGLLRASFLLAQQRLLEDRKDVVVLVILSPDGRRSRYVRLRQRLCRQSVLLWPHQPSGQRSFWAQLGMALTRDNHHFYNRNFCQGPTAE
Summary of the method: as §1

human TLR7 = biological target: T3, human TLR7 (Homo sapiens, UniProt Q9NYK1); assay: TLR7 inhibition reporter assay (HEK-Blue cells, SEAP reporter, gardiquimod stimulation); conditions: HEK-Blue cells overexpressing human TLR7, SEAP reporter, gardiquimod 7.5 μM
T3 construct: host or cells: HEK-Blue cells
T3 sequence (Q9NYK1 27-1049): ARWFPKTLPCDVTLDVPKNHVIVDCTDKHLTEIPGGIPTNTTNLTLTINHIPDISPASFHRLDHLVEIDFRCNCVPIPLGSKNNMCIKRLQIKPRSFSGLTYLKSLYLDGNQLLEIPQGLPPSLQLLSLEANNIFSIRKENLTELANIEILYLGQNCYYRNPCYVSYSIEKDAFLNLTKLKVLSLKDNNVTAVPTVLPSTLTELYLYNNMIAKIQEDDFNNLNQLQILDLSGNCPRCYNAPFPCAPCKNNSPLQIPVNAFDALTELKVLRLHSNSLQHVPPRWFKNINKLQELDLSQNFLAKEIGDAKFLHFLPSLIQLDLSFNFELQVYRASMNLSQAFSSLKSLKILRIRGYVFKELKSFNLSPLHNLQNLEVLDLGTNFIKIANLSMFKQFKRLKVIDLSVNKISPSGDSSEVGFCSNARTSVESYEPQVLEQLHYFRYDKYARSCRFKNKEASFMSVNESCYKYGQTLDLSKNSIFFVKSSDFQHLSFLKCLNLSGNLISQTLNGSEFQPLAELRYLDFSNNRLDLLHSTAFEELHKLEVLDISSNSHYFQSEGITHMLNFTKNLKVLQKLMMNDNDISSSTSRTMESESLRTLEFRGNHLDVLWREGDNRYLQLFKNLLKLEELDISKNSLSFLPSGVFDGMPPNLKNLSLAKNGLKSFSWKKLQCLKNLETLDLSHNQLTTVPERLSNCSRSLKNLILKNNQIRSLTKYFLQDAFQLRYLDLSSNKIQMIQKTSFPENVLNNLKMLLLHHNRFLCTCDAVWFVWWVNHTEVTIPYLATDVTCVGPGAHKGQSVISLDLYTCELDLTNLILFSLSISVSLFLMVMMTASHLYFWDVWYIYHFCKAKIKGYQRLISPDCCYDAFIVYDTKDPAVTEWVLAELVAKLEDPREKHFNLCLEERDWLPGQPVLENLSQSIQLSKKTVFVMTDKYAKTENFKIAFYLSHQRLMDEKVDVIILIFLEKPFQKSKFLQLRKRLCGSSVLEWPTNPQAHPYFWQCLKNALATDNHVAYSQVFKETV
Summary of the method: as §1

For `Cc1cc(-c2[nH]nc(C(=O)NC3CCN(C4COC4)CC3)c2CC(F)(F)F)cn2ncnc12` [Example 200], the IC50 (human TLR8) was 0.39 nM, the IC50 (human TLR9) was 10.1 µM and the IC50 (human TLR7) was 0.92 nM.

For `COc1cc(-c2[nH]nc(C(=O)NC3CCNCC3)c2C(C)C)cn2ncnc12` [Example 60], the IC50 (human TLR8) was 27.9 nM, the IC50 (human TLR9) was over 50 µM and the IC50 (human TLR7) was 36.6 nM.

In the case of `Cc1cc(-c2[nH]nc(C(=O)NCCc3ccccn3)c2C(C)C)cn2ncnc12` [Example 4], the IC50 (human TLR8) is reported as 33.9 nM, the IC50 (human TLR9) is reported as 0.287 µM and the IC50 (human TLR7) is reported as 5.52 nM.

Molecule `CCN1CCC(c2ccc(-c3n[nH]c(-c4cc(C)c5ncnn5c4)c3C(C)C)cn2)CC1` [Example 360] has an IC50 (human TLR8) of 1330 nM, an IC50 (human TLR9) of over 50 µM and an IC50 (human TLR7) of 1220 nM.

Work on `Cc1cc(-c2[nH]nc(-c3nc4c(s3)CN(CC(C)(C)O)CC4)c2C(C)C)cn2ncnc12` [Example 265] yielded an IC50 (human TLR8) of 3.29 nM, an IC50 (human TLR9) of 47.7 µM and an IC50 (human TLR7) of 14 nM.

`Cc1cc(-c2[nH]nc(C3CCN(C(=O)CCNC(C)C)CC3)c2C(C)C)cn2ncnc12` [compound 210] gave an IC50 (human TLR8) of 1.24 nM, an IC50 (human TLR9) of 23.8 µM and an IC50 (human TLR7) of 1.8 nM.

Work on `Cc1cc(-c2[nH]nc(-c3nc4c(s3)CN(CC(=O)N(C)C)CC4)c2C(C)C)cn2ncnc12` [Example 275] yielded an IC50 (human TLR8) of 515 nM, an IC50 (human TLR9) of over 50 µM and an IC50 (human TLR7) of 413 nM.

Work on `Cc1cc(-c2[nH]nc(C(=O)N[C@H]3CC[C@H](NCC4CCOC4)CC3)c2C(C)C)cn2ncnc12` (stereo partly drawn) [Example 105] yielded an IC50 (human TLR8) of 43.2 nM, an IC50 (human TLR9) of 2.18 µM and an IC50 (human TLR7) of 1.38 nM.

`COc1cc(-c2[nH]nc(-c3ccc(C4CCN(C(=O)CN(C)C)CC4)cn3)c2C(C)C)cn2ncnc12` [Example 402, 2-(dimethylamino)-1-(4-(6-(4-isopropyl-5-(8-methoxy-[1,2,4]triazolo[1,5-a]pyridin-6-yl)-1H-pyrazol-3-yl)pyridin-3-yl)piperidin-1-yl)ethan-1-one] showed an IC50 (human TLR8) of 297 nM, an IC50 (human TLR9) of over 50 µM and an IC50 (human TLR7) of 35.1 nM.
